The values below come from ChEMBL document CHEMBL5113463, “Discovery and preclinical evaluations of JBD0131, a novel nitrodihydro-imidazooxazole anti-tuberculosis agent” (Bioorg Med Chem Lett, 2022).

The term MIC50 denotes an inhibitory concentration at the 50% level, which refers to growth in some studies and to a panel of isolates in others. The MIC90 is the lowest concentration that inhibits either 90% of growth or 90% of the strains tested, depending on the study. A word on the IC50: it is the concentration needed to halve the response being measured. For orientation: half-life means how long it takes for the measured level to halve.

Data set [1] deals with Mycobacterium tuberculosis. Description: Antimycobacterial activity against clinical isolate drug susceptible Mycobacterium tuberculosis H37Rv assessed as bacterial growth inhibition. It is filed as functional.
Data set [2] concerns Mycobacterium tuberculosis. Description: In vivo antimycobacterial activity against Mycobacterium tuberculosis Erdman infected mouse acute tuberculosis infection model assessed as reduction lung bacterial load by measuring CFU at 15 mg/kg for 3 weeks at 5 days/week. Format: functional, organism-based.
The target of data set [3] is Voltage-gated inwardly rectifying potassium channel KCNH2 (Homo sapiens, UniProt Q12809). Description: Inhibition of human ERG. It is filed as toxicity.
The nature of data set [4]: Metabolic stability in human assessed as half life. Format: ADME.

SMILES strings stand for the structures. Converted amounts (≈) assume the structure as drawn. The source made the active and inactive calls. No cut-off for these calls is given here.

Voltage-gated inwardly rectifying potassium channel KCNH2, sequence (Q12809 whole entry): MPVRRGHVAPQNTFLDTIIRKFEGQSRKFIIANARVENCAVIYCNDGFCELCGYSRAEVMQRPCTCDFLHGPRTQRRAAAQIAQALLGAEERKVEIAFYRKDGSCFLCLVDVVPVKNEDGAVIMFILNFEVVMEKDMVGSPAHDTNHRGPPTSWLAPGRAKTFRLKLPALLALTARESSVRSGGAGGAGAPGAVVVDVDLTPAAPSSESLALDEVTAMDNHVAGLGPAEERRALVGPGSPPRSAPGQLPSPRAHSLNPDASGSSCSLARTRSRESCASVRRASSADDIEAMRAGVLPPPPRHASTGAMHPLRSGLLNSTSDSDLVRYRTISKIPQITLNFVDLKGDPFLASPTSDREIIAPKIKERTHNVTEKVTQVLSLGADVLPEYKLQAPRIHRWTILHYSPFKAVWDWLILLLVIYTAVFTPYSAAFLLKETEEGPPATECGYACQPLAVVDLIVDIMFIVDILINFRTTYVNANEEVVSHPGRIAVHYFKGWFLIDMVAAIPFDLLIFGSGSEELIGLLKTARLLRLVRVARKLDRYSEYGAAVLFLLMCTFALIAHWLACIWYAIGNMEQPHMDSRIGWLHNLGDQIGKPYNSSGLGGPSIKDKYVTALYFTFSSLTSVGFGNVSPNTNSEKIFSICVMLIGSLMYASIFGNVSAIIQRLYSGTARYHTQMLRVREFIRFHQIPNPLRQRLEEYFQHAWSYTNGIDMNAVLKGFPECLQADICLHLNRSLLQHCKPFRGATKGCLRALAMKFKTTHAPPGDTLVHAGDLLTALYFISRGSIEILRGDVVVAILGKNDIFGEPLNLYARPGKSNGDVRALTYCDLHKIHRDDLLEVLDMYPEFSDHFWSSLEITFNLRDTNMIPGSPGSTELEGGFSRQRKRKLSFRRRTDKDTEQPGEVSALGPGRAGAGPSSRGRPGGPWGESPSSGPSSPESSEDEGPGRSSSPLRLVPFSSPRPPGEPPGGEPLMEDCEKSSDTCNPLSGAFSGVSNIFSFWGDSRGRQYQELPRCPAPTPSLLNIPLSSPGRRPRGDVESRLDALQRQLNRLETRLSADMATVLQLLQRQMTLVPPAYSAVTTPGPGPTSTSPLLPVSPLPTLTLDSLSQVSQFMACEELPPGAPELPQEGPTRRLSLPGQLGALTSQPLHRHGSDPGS

On to `CO[C@H]1/C=C/O[C@@]2(C)Oc3c(C)c(O)c4c(O)c(c(/C=N/N5CCN(C)CC5)c(O)c4c3C2=O)NC(=O)/C(C)=C\C=C\[C@H](C)[C@H](O)[C@@H](C)[C@@H](O)[C@@H](C)[C@H](OC(C)=O)[C@@H]1C` [RIFAMPIN], for which, in data set [1], the MIC50 is 0.035 µg/mL (≈ 0.0425 µM) and the MIC90 was 0.064 µg/mL (≈ 0.0778 µM). The outcome in data set [2] was Active.

Molecule `C[C@]1(COc2ccc(N3CCC(Oc4ccc(OC(F)(F)F)cc4)CC3)cc2)CN=C(N)O1` [DM-6705] yielded an IC50 in data set [3] of 82 nM. Further, the half-life in data set [4] was 122 h.
